Reference: patent US8188059B2, “Compounds and methods for modulating expression of GCGR” (Isis Pharmaceuticals, Inc., priority 2006, dated 2012)
Strand notation (5' to 3'): a small letter for the sugar, then the base; units joined by * are phosphorothioate-linked, units joined directly phosphodiester-linked; [ ] holds rarer units or linkages, { } end groups; capitals alone tell only the bases. [PALM-N] = nucleoside bearing a 2'-(butylacetamido)-palmitamide (C16 palmitic acid) substituent (N: the base); e = 2'-O-(2-methoxyethyl) (MOE); l = locked nucleic acid (LNA); [5mC] = 5-methylcytosine; d = 2'-deoxy (DNA)

Experiments:
[1] = ALT and AST levels, Balb/c mice (Example 3, Table 26); type: in vivo, mouse; conditions: 2.4 μmol/kg i.p. twice per week for three weeks, 48 h after final injection
Procedure: (§1) Antisense compound doses included 2.4, 1.2, 0.6, 0.3 and 0.15 μmol/kg. For antisense compounds 14 nucleotides in length, these doses equate to approximately 12, 6, 3, 1.5 or 0.75 mg/kg, respectively. Shown in Table 25 are the sequences and motifs of the antisense compounds used in this study. […] Bolded residues indicate 2′-O-methoxyethyl moieties and italicized residues indicate methyleneoxy (4′-CH2—O-2′) BNAs. The internucleoside linkages of each compound are phosphorothioate throughout. All cytosine residues of ISIS 147764 and ISIS 372938 are replaced by 5-methyl cytosines. For ISIS 387462, only the cytosine residue in the wing of the compound is replaced by 5-methyl cytosine. ApoB antisense compounds are targeted to publicly available ApoB-100 sequences, including Genbank Accession No. XM—137955.5 (SEQ ID NO: 2).
(§2) Forty-eight hours following the final injection, mice were sacrificed to evaluate transaminases (Table 26); liver and kidney weight (Table 27); triglyceride, LDL, HDL and free fatty acid levels (Table 28); target mRNA level in liver (Table 29); target protein level in plasma; and oligonucleotide tissue concentration (Table 30). These endpoints were determined using methods described herein and well known to those of ordinary skill in the art.

[2] = Triglyceride, total cholesterol, HDL, LDL, free fatty acid and glucose levels (Example 3, Table 28); type: in vivo, mouse; design: Free Fatty Acid (FFA): unit not given here; conditions: Balb/c mice, 2.4 μmol/kg i.p. twice per week for three weeks
Procedure: as §1, §2
Glucose levels also were similar among all treatment groups.

[3] = Full-length and total antisense compound tissue concentration in liver and kidney (Example 3, Table 30); type: in vivo, mouse; conditions: Balb/c mice, 2.4 μmol/kg i.p. twice per week for three weeks
Procedure: as §1, §2
To determine whether the observed increase in efficiency with the methyleneoxy (4′-CH2—O-2′) BNA gapmer is due to an increase in oligonucleotide accumulation, full-length and total oligonucleotide concentration in the liver and kidney were determined.

ApoB mRNA [4] = assay: ApoB mRNA level in liver of Balb/c mice, i.p. twice per week for three weeks (Example 3, Table 29); type: in vivo, mouse; conditions: 2.4 μmol/kg i.p. twice per week for three weeks
Procedure: Prior to quantitative PCR analysis, primer-probe sets specific to the target gene being measured were evaluated for their ability to be “multiplexed” with a GAPDH amplification reaction. After isolation the RNA is subjected to sequential reverse transcriptase (RT) reaction and real-time PCR, both of which are performed in the same well. RT and PCR reagents were obtained from Invitrogen Life Technologies (Carlsbad, Calif.). […] The RT reaction was carried out by incubation for 30 minutes at 48° C. Following a 10 minute incubation at 95° C. to activate the […]® Taq, 40 cycles of a two-step PCR protocol were carried out: 95° C. for 15 seconds (denaturation) followed by 60° C. for 1.5 minutes (annealing/extension).
as §1, §2

[5] = Liver and kidney weight, total body weight and food consumption (Example 3, Table 27); type: in vivo, mouse; conditions: Balb/c mice, 2.4 μmol/kg i.p. twice per week for three weeks
Procedure: as §1, §2

[6] = HbA1c status in ZDF rats (Example 16, Table 72); type: in vivo, rat; conditions: for Percentage HbA1c on specific dates, Day 40 / Percentage HbA1c on specific dates, Day 55 / Percentage HbA1c on specific dates, Day 68: 400 nM/kg i.p. once a week for twelve weeks; for Percentage HbA1c on specific dates, Day 40: Day 40, p < 0.001; for Percentage HbA1c on specific dates, Day 55: Day 55, p < 0.001; for Percentage HbA1c on specific dates, Day 68: Day 68, p < 0.001
Procedure: (§3) ISIS 388625, 388626 and control oligo ISIS 388628 were analyzed for their effect on ZDF rat plasma glucose levels and HbA1c. The leptin receptor deficient Zucker diabetic fatty (ZDF) rat is a useful model for the investigation of type 2 diabetes. Diabetes develops spontaneously in these male rats at ages 8-10 weeks, and is associated with hyperphagia, polyuria, polydipsia, and impaired weight gain, symptoms which parallel the clinical symptoms of diabetes (Phillips M S, et al., 1996, Nat Genet. 13, 18-19). Six week old ZDF rats were injected intraperitoneally with short antisense compound at a dose of 400 nM/kg once a week for twelve weeks. Data are illustrated in Tables 71 and 72.

[7] = Plasma glucose in ZDF rats, once a week for twelve weeks (Example 16, Table 71); type: in vivo, rat
Procedure: as §3

ApoB mRNA [8] = assay: ApoB mRNA in liver of Balb/c mice, palmitic acid conjugates, single i.p. dose, with ED50 (Example 30, Table 95); type: in vivo, mouse; conditions: for % Inhib: Balb/c mice, about 48 hours after dose, relative to saline-treated controls
Procedure: 0.4, and 0.16 umol/kg. Each dose group consisted of four animals. A 5-10-5 MOE gapmer was used for a control treatment. Mice were sacrificed approximately 48 hours following the final dose. Liver tissue was collected for RNA isolation, and blood was collected for serum chemistry analyses. ApoB mRNA levels were measured by real-time PCR as described herein. ApoB mRNA levels were normalized to RNA levels as determined by RIBOGREEN, and are presented in Table 95 as percent inhibition relative to ApoB mRNA levels in saline-treated control animals.
At the 2.5 umol/kg dose, ApoB inhibition by the short antisense compounds was greater than observed with a 5-10-5 MOE gapmer at an equivalent dose. […] Triglycerides were reduced at the 2.5 and […] doses of ISIS 387462 and ISIS 391872.

mouse SGLT2 mRNA [9] = assay: Mouse SGLT2 mRNA levels in kidney, additional 1-10-1 and 2-8-2 MOE gapmers, Balb/c mice (Example 15, Table 68); type: in vivo
Procedure: 1-10-1 and 2-8-2 MOE gapmer short antisense compounds were designed to target different regions of the mouse SGLT2 RNA but have complementarity across species. […] All cytidine residues are 5-methylcytidines.
The short antisense compounds were analyzed for their effect on mouse SGLT2 mRNA levels in vivo. Data was taken from three experiments in which male 6-week old Balb/c mice were dosed twice per week for three weeks with 0.5, 0.1, or 0.02 umol/kg of either a 1-10-1 or 2-8-2 MOE gapmer given by intraperitoneal injection. Mice were sacrificed 48 hours following last administration and evaluated for SGLT2 levels in kidney. Target levels were determined by RT, real-time PCR as described by other examples herein. PCR results were normalized to an internal ISIS control.

mouse SGLT2 mRNA [10] = assay: Mouse SGLT2 mRNA levels in kidney, MOE versus Methyleneoxy BNA gapmers, Balb/c mice (Example 15, Table 69); type: in vivo
Procedure: The effect of ISIS 379692 1-10-1 MOE gapmer and ISIS 388625 2-8-2 MOE gapmer are compared with the effect of ISIS 392170 1-10-1 Methyleneoxy BNA Gapmer and ISIS 392173 2-8-2 Methyleneoxy BNA Gapmer (see Table 69) on mouse SGLT2 mRNA levels in vivo. Data are taken from three experiments in which male 6-week old Balb/c mice were dosed twice per week for three weeks with 5, 25 and 125 nmol/kg of either the ISIS 379692 1-10-1 MOE gapmer or the ISIS 388625 2-8-2 MOE gapmer given by intraperitoneal injection. Mice were sacrificed 48 hours following last administration and evaluated for SGLT2 mRNA levels in kidney. Target levels were determined by RT, real-time PCR as described by other examples herein. PCR results were normalized to an internal ISIS control. The data are expressed as percent change (“+” indicates an increase, “−” indicates a decrease) relative to saline treated animals and are illustrated in Table 69.

[11] = Day 10, 400 nM/kg i.p. once a week for twelve weeks
[12] = Day 40, 400 nM/kg i.p. once a week for twelve weeks
[13] = Day 55, 400 nM/kg i.p. once a week for twelve weeks
[14] = Day 66, 400 nM/kg i.p. once a week for twelve weeks
[15] = compared to PBS and control treated animals
[16] = 5 nmol/kg i.p. twice per week for three weeks
[17] = 25 nmol/kg i.p. twice per week for three weeks
[18] = 125 nmol/kg i.p. twice per week for three weeks

Substance: 147764 (antisense eG*eT*e[5mC]*e[5mC]*e[5mC]*dT*dG*dA*dA*dG*dA*dT*dG*dT*d[5mC]*eA*eA*eT*eG*e[5mC]) [compound 147764]
- ALT [1]: 29.5 IU/L
- AST [1]: 64.0 IU/L
- Free Fatty Acid (FFA) [2]: 1.29
- HDL [2]: 81.3 mg/dL
- LDL [2]: 10.3 mg/dL
- Total Cholesterol (CHOL) [2]: 107 mg/dL
- Triglyceride (TRIG) [2]: 167 mg/dL
- Kidney Full-Length antisense compound tissue concentration [3]: 28.6 µM
- Kidney Total antisense compound tissue concentration [3]: 33.5 µM
- Liver Full-Length antisense compound tissue concentration [3]: 22.9 µM
- Liver Total antisense compound tissue concentration [3]: 31.3 µM
- ApoB mRNA level (ApoB mRNA [4]; Table 30 (rounded)): 58 % of saline control
- % ApoB mRNA Level (relative to saline control) (ApoB mRNA [4]; liver): 57.7%
- Kidney Weight [5]: 105 % of saline control
- Liver Weight [5]: 102 % of saline control

Substance: 388625 (antisense eT*eG*dT*dT*d[5mC]*d[5mC]*dA*dG*d[5mC]*d[5mC]*e[5mC]*eA) [compound 388625]
- Percentage HbA1c on specific dates, Day 40 [6]: 6.5%
- Percentage HbA1c on specific dates, Day 55 [6]: 5.8%
- Percentage HbA1c on specific dates, Day 68 [6]: 4.3%
- Plasma glucose levels [7, 11]: 435.5 mg/dL
- Plasma glucose levels [7, 12]: 278.7 mg/dL
- Plasma glucose levels [7, 13]: 213.8 mg/dL
- Plasma glucose levels [7, 14]: 325.5 mg/dL

Substance: 388628 (antisense eT*eA*dG*d[5mC]*d[5mC]*dG*d[5mC]*d[5mC]*d[5mC]*dA*e[5mC]*eA) [compound 388628]
- Percentage HbA1c on specific dates, Day 40 [6]: 8.0%
- Percentage HbA1c on specific dates, Day 55 [6]: 9.1%
- Percentage HbA1c on specific dates, Day 68 [6]: 7.8%
- Plasma glucose levels [7, 11]: 436.0 mg/dL
- Plasma glucose levels [7, 12]: 502.0 mg/dL
- Plasma glucose levels [7, 13]: 411.2 mg/dL
- Plasma glucose levels [7, 14]: 668.8 mg/dL

Substance: 391871 (antisense [PALM-G]*eG*dT*dA*dC*dA*dT*dG*dG*dA*dA*dG*eT*e[5mC]) [compound 391871]
- % Inhib (ApoB mRNA [8]; single i.p. dose 0.16 umol/kg): 0%
- % Inhib (ApoB mRNA [8]; single i.p. dose 0.4 umol/kg): 5%
- % Inhib (ApoB mRNA [8]; single i.p. dose 1.0 umol/kg): 18%

Substance: 391872 (antisense [PALM-G]*lG*dT*dA*dC*dA*dT*dG*dG*dA*dA*dG*lT*l[5mC]) [compound 391872]
- % Inhib (ApoB mRNA [8]; single i.p. dose 0.16 umol/kg): 18%
- % Inhib (ApoB mRNA [8]; single i.p. dose 0.4 umol/kg): 50%
- % Inhib (ApoB mRNA [8]; single i.p. dose 1.0 umol/kg): 92%

Substance: ISIS 388626: SGLT2; GGCATGAGCTTC 2-8-2 MOE (antisense eG*eG*d[5mC]*dA*dT*dG*dA*dG*d[5mC]*dT*eT*e[5mC])
- % change in SGLT2 expression relative to saline (mouse SGLT2 mRNA [9]; 0.02 umol/kg i.p. twice per week for three weeks): −45%
- % change in SGLT2 expression relative to saline (mouse SGLT2 mRNA [9]; 0.1 umol/kg i.p. twice per week for three weeks): −60%
- % change in SGLT2 expression relative to saline (mouse SGLT2 mRNA [9]; 0.5 umol/kg i.p. twice per week for three weeks): −80%
- Percentage HbA1c on specific dates, Day 40 [6]: 6.6%
- Percentage HbA1c on specific dates, Day 55 [6]: 5.9%
- Percentage HbA1c on specific dates, Day 68 [6]: 4.0%
- HbA1C [6, 15]: significantly reduced
- Plasma glucose levels [7, 11]: 434.7 mg/dL
- Plasma glucose levels [7, 12]: 300.5 mg/dL
- Plasma glucose levels [7, 13]: 219.8 mg/dL
- Plasma glucose levels [7, 14]: 379.8 mg/dL
- Plasma glucose levels [7, 15]: significantly reduced

Substance: ISIS 391871: ApoB; GGTACATGGAAGTC 1-1-10-2 2′-(butylacetomido)-palmitamide/MOE/MOE Unmodified cytosines in gap (antisense [PALM-G]*eG*dT*dA*dC*dA*dT*dG*dG*dA*dA*dG*eT*e[5mC])
- estimated ED50 (ApoB mRNA [8]; single i.p. injection): 13.1 mg/kg

Substance: ISIS 392170: SGLT2; 1-10-1 Methyleneoxy BNA Gapmer (antisense lT*dG*dT*dT*d[5mC]*d[5mC]*dA*dG*d[5mC]*d[5mC]*d[5mC]*lA)
- SGLT2 mRNA, percent change relative to saline treated animals (mouse SGLT2 mRNA [10]; [16]): −23 percent change
- SGLT2 mRNA, percent change relative to saline treated animals (mouse SGLT2 mRNA [10]; [17]): −54 percent change
- SGLT2 mRNA, percent change relative to saline treated animals (mouse SGLT2 mRNA [10]; [18]): −69 percent change

Substance: ISIS 392173: SGLT2; 2-8-2 Methyleneoxy BNA Gapmer (antisense lT*lG*dT*dT*d[5mC]*d[5mC]*dA*dG*d[5mC]*d[5mC]*l[5mC]*lA)
- SGLT2 mRNA, percent change relative to saline treated animals (mouse SGLT2 mRNA [10]; [16]): −44 percent change
- SGLT2 mRNA, percent change relative to saline treated animals (mouse SGLT2 mRNA [10]; [17]): −57 percent change
- SGLT2 mRNA, percent change relative to saline treated animals (mouse SGLT2 mRNA [10]; [18]): −75 percent change
